From the supplement of paper PMC10307832

What was measured:
Assay in all cases: relative viability (nuclei count vs DMSO), 5 days (fraction); higher = more cells survive
IDH-C35 + Navitoclax = compound: Cc1ccccc1C(C(=O)NC1CCCCC1)N(C(=O)Cn1ccnc1C)c1cccc(F)c1 [IDH-C35] + CC1(C)CCC(c2ccc(Cl)cc2)=C(CN2CCN(c3ccc(C(=O)NS(=O)(=O)c4ccc(N[C@H](CCN5CCOCC5)CSc5ccccc5)c(S(=O)(=O)C(F)(F)F)c4)cc3)CC2)C1 [Navitoclax] (partner 0.5 µM)
Procedure, shortened: (§1)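 Lung cancer cell lines in 1536-well plates got either a single drug or a fixed anchor-drug dose together with five library-drug doses (not always all listed) in √10 steps, by pin tool, on the day after seeding. Nuclei were counted after 5 days, and relative viability is the treated-to-vehicle ratio of nuclei counts. Values are medians of duplicate plates.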

IDH-C35 + Crizotinib = compound: Cc1ccccc1C(C(=O)NC1CCCCC1)N(C(=O)Cn1ccnc1C)c1cccc(F)c1 [IDH-C35] + C[C@@H](Oc1cc(-c2cnn(C3CCNCC3)c2)cnc1N)c1c(Cl)ccc(F)c1Cl [Crizotinib] (partner 1 µM)
Procedure, shortened: as §1

[1] = compound: CC1=C(C(=NN1)C)CC2=C(C3=C(S2)N(C(=O)N(C3=O)C)CC(C)C)C(=O)N4C[C@@H](CO4)O + Cc1cc(Nc2cc(N3CCN(C)CC3)nc(Sc3ccc(NC(=O)C4CC4)cc3)n2)n[nH]1 [Tozasertib] (partner 0.1 µM)
Procedure, shortened: as §1

IDH-C35 + Pemetrexed = compound: Cc1ccccc1C(C(=O)NC1CCCCC1)N(C(=O)Cn1ccnc1C)c1cccc(F)c1 [IDH-C35] + Nc1nc2[nH]cc(CCc3ccc(C(=O)N[C@@H](CCC(=O)O)C(=O)O)cc3)c2c(=O)[nH]1 [Pemetrexed] (partner 0.2 µM)
Procedure, shortened: as §1

Cell Line | relative viability (IDH-C35 + Navitoclax; first compound 0.08 µM) | relative viability (IDH-C35 + Navitoclax; first compound 0.253 µM) | relative viability (IDH-C35 + Navitoclax; first compound 0.8 µM) | relative viability (IDH-C35 + Navitoclax; first compound 2.53 µM) | relative viability (IDH-C35 + Navitoclax; first compound 8 µM) | relative viability (IDH-C35 + Crizotinib; first compound 0.08 µM) | relative viability (IDH-C35 + Crizotinib; first compound 0.253 µM) | relative viability (IDH-C35 + Crizotinib; first compound 0.8 µM) | relative viability (IDH-C35 + Crizotinib; first compound 2.53 µM) | relative viability (IDH-C35 + Crizotinib; first compound 8 µM) | relative viability ([1]; first compound 0.0025 µM) | relative viability ([1]; first compound 0.007906 µM) | relative viability ([1]; first compound 0.025 µM) | relative viability ([1]; first compound 0.07906 µM) | relative viability ([1]; first compound 0.25 µM) | relative viability (IDH-C35 + Pemetrexed; first compound 0.08 µM) | relative viability (IDH-C35 + Pemetrexed; first compound 0.253 µM) | relative viability (IDH-C35 + Pemetrexed; first compound 0.8 µM) | relative viability (IDH-C35 + Pemetrexed; first compound 2.53 µM) | relative viability (IDH-C35 + Pemetrexed; first compound 8 µM)
201T | 1.18 | 1.19 | 1.19 | 1.17 | 1.19 | 1.03 | 1.02 | 0.982 | 0.999 | 0.997 | 1.05 | 0.92 | 0.915 | 0.904 | 1.03 | 0.329 | 0.351 | 0.367 | 0.343 | 0.321
NCI-H2126 | 0.906 | 0.864 | 0.849 | 0.866 | 0.857 | 0.996 | 1.02 | 1 | 0.981 | 0.992 | 0.923 | 0.835 | 0.832 | 0.788 | 0.901 | 0.68 | 0.703 | 0.696 | 0.597 | 0.668
HOP-62 | 1.07 | 0.939 | 0.84 | 0.974 | 0.891 | 0.839 | 1.04 | 0.832 | – | 0.925 | 0.312 | 0.376 | 0.344 | 0.393 | 0.407 | 0.302 | 0.309 | 0.255 | 0.338 | 0.346
CAL-12T | 1.32 | 1.19 | 1.06 | 1.36 | 1.09 | 0.556 | 0.792 | 0.682 | 0.603 | 0.603 | 0.334 | 0.315 | 0.366 | 0.332 | 0.304 | 1.23 | 1.14 | 1.37 | 1.15 | 1.12
NCI-H520 | 1.02 | 1.15 | 1.07 | 0.933 | 1.21 | 0.785 | 0.812 | 0.757 | 0.775 | 0.796 | 0.406 | 0.433 | 0.432 | 0.445 | 0.407 | 0.776 | 0.548 | 0.715 | 0.699 | 0.622
NCI-H1755 | 0.981 | 1.01 | 0.973 | 0.976 | 0.96 | 0.911 | 0.915 | 0.872 | 0.865 | 0.827 | 0.71 | 0.571 | 0.543 | 0.486 | 0.593 | 0.455 | 0.748 | 0.458 | 0.411 | 0.473
NCI-H2023 | 1.09 | 1.01 | 0.979 | 0.962 | 1.1 | 0.668 | 0.627 | 0.637 | 0.636 | 0.592 | 0.332 | 0.362 | 0.356 | 0.412 | 0.327 | 0.262 | 0.246 | 0.245 | 0.241 | 0.2
NCI-H2009 | 1.22 | 1.16 | 1.12 | 1.17 | 1.16 | 0.992 | 1 | 1.08 | 0.971 | 0.995 | 0.751 | 0.695 | 0.779 | 0.829 | 0.745 | 1.02 | 0.968 | 0.936 | 1.01 | 0.936
